According to patent US11753407B2, “Compounds for treating spinal muscular atrophy” (PTC Therapeutics, Inc., priority 2012, dated 2023):

Assays:
[1] = system: Smn protein in SMA patient fibroblast cells (GM03813); assay: Smn protein assay in cultured cells (SMN HTRF); type: cell-based, human; conditions: SMA patient fibroblast cells, 48 hours; for EC1.5x for Smn protein expression: 7-point concentration curve, SMN HTRF, concentration producing 1.5 times Smn protein vs DMSO vehicle control; for maximum fold (Fold) increase of Smn protein: 7-point concentration data, fold relative to vehicle control
In short: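 Patient-derived SMA fibroblasts are plated, given compound for 48 h, then lysed in RIPA buffer with protease inhibitors. Lysate Smn is detected by an anti-SMN d2/kryptate HTRF pair incubated overnight. The normalized ΔF is divided by the vehicle ΔF to give fold change, from which EC1.5× and maximum fold are taken.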

[2] = system: SMN2 minigene mRNA (SMN2-A minigene) in HEK293H cells; assay: SMN2 minigene mRNA splicing RT-qPCR assay in cultured cells; type: cell-based, human; conditions: Homo sapiens, HEK293-H; concentration increasing full length SMN2 mRNA 1.5-fold relative to vehicle-treated cells; HEK293H cells with SMN2-A minigene, 24 hours, 7-point concentration data; read-out: EC1.5x for production of full length SMN2 mRNA
In short: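 Cells are seeded, left to attach 4-6 h, then dosed with test compound across seven concentrations and incubated 24 h. Lysates undergo RT-qPCR with primers/probe specific to the exon 7-containing minigene transcript, co-amplified with GAPDH. Fold change over vehicle is calculated, and EC1.5× marks the 1.5-fold point.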

Cc1nc2ccc(-c3cc(=O)n4cc(N5CCNCC5)ccc4n3)cc2s1 [Compound 219, 2-(2-methyl-1,3-benzothiazol-6-yl)-7-(piperazin-1-yl)-4H-pyrido[1,2-a]pyrimidin-4-one]
EC1.5x for Smn protein expression [1]: **** (an EC1.5x≤0.3 μM is indicated by four stars (****))
maximum fold (Fold) increase of Smn protein [1]: **** (a fold increase between >1.5 and ≤1.65 is indicated by four stars (****))
EC (1.5-fold increase) [2]: < 0.1 µM
melting point: 218 to 220 °C

Cc1nc2ccc(-c3cc(=O)n4cc(N5CCN[C@@H](C)C5)ccc4n3)cc2s1 [Compound 221, 2-(2-methyl-1,3-benzothiazol-6-yl)-7-[(3S)-3-methylpiperazin-1-yl]-4H-pyrido[1,2-a]pyrimidin-4-one]
EC1.5x for Smn protein expression [1]: **** (an EC1.5x≤0.3 μM is indicated by four stars (****))
maximum fold (Fold) increase of Smn protein [1]: ***** (a fold increase >1.65 is indicated by five stars (*****))
EC (1.5-fold increase) [2]: < 0.1 µM
melting point: 214 to 216 °C

CN[C@H]1CCN(c2ccc3nc(-c4ccc(OC)c(F)c4)cc(=O)n3c2)C1 [Compound 222, 2-(3-fluoro-4-methoxyphenyl)-7-[(3S)-3-(methylamino)pyrrolidin-1-yl]-4H-pyrido[1,2-a]pyrimidin-4-one]
maximum fold (Fold) increase of Smn protein [1]: *** (a fold increase between >1.35 and ≤1.5 is indicated by three stars (***))
EC (1.5-fold increase) [2]: 0.3 to 1 µM
melting point: 208 to 216 °C

CNCC1CCN(c2ccc3nc(-c4ccc(OC)c(F)c4)cc(=O)n3c2)CC1 [Compound 223, 2-(3-fluoro-4-methoxyphenyl)-7-{4-[(methylamino)methyl]piperidin-1-yl}-4H-pyrido[1,2-a]pyrimidin-4-one]
maximum fold (Fold) increase of Smn protein [1]: *** (a fold increase between >1.35 and ≤1.5 is indicated by three stars (***))
EC (1.5-fold increase) [2]: 0.3 to 1 µM
melting point: 163 to 170 °C

COc1ccc(-c2cc(=O)n3cc(N4CC[C@H](N)C4)ccc3n2)cc1F [Compound 224, 7-[(3S)-3-aminopyrrolidin-1-yl]-2-(3-fluoro-4-methoxyphenyl)-4H-pyrido[1,2-a]pyrimidin-4-one]
EC1.5x for Smn protein expression [1]: *** (an EC1.5× between >0.3 μM and ≤1 μM is indicated by three stars (***))
maximum fold (Fold) increase of Smn protein [1]: **** (a fold increase between >1.5 and ≤1.65 is indicated by four stars (****))
EC (1.5-fold increase) [2]: 0.3 to 1 µM
melting point: 193 to 198 °C

COc1ccc(-c2cc(=O)n3cc(N[C@@H]4CCN(C)C4)ccc3n2)cc1F [Compound 225, 2-(3-fluoro-4-methoxyphenyl)-7-{[(3R)-1-methylpyrrolidin-3-yl]amino}-4H-pyrido[1,2-a]pyrimidin-4-one]
maximum fold (Fold) increase of Smn protein [1]: * (A maximum fold increase of ≤1.2 is indicated by one star (*))
EC (1.5-fold increase) [2]: 1 to 3 µM
melting point: 197 to 202 °C

COc1ccc(-c2cc(=O)n3cc(N4CCC(CN(C)C)CC4)ccc3n2)cc1F [Compound 226, 7-{4-[(dimethylamino)methyl]piperidin-1-yl}-2-(3-fluoro-4-methoxyphenyl)-4H-pyrido[1,2-a]pyrimidin-4-one]
maximum fold (Fold) increase of Smn protein [1]: * (A maximum fold increase of ≤1.2 is indicated by one star (*))
EC (1.5-fold increase) [2]: 0.3 to 1 µM
melting point: 178 to 185 °C

COc1cccc(-c2cc(=O)n3cc(N4CCNCC4)ccc3n2)n1 [Compound 227, 2-(6-methoxypyridin-2-yl)-7-(piperazin-1-yl)-4H-pyrido[1,2-a]pyrimidin-4-one]
maximum fold (Fold) increase of Smn protein [1]: *** (a fold increase between >1.35 and ≤1.5 is indicated by three stars (***))
EC (1.5-fold increase) [2]: 1 to 3 µM
melting point: 214 to 218 °C

O=c1cc(-c2cccnc2)nc2ccc(N3CCNCC3)cn12 [Compound 228, 7-(piperazin-1-yl)-2-(pyridin-3-yl)-4H-pyrido[1,2-a]pyrimidin-4-one]
maximum fold (Fold) increase of Smn protein [1]: ** (a fold increase between >1.2 and ≤1.35 is indicated by two stars (**))
EC (1.5-fold increase) [2]: 1 to 3 µM
melting point: 175 to 178 °C

COc1cncc(-c2cc(=O)n3cc(N4CCNCC4)ccc3n2)c1 [Compound 229, 2-(5-methoxypyridin-3-yl)-7-(piperazin-1-yl)-4H-pyrido[1,2-a]pyrimidin-4-one]
EC1.5x for Smn protein expression [1]: * (An EC1.5× for Smn protein expression between >3 μM and ≤10 μM is indicated by one star (*))
maximum fold (Fold) increase of Smn protein [1]: *** (a fold increase between >1.35 and ≤1.5 is indicated by three stars (***))
EC (1.5-fold increase) [2]: 0.3 to 1 µM
melting point: 192 to 195 °C

C[C@H]1CN(c2ccc3nc(-c4cc(F)cc(C#N)c4)cc(=O)n3c2)CCN1 [Compound 230, 3-fluoro-5-{7-[(3S)-3-methylpiperazin-1-yl]-4-oxo-4H-pyrido[1,2-a]pyrimidin-2-yl}benzonitrile]
EC1.5x for Smn protein expression [1]: ** (an EC1.5× between >1 μM and ≤3 μM is indicated by two stars (**))
maximum fold (Fold) increase of Smn protein [1]: **** (a fold increase between >1.5 and ≤1.65 is indicated by four stars (****))
EC (1.5-fold increase) [2]: 0.3 to 1 µM
melting point: 185 to 188 °C

N#Cc1cc(F)cc(-c2cc(=O)n3cc(N4CCNCC4)ccc3n2)c1 [Compound 231, 3-fluoro-5-[4-oxo-7-(piperazin-1-yl)-4H-pyrido[1,2-a]pyrimidin-2-yl]benzonitrile]
EC1.5x for Smn protein expression [1]: ** (an EC1.5× between >1 μM and ≤3 μM is indicated by two stars (**))
maximum fold (Fold) increase of Smn protein [1]: **** (a fold increase between >1.5 and ≤1.65 is indicated by four stars (****))
EC (1.5-fold increase) [2]: 0.3 to 1 µM
melting point: 238 to 244 °C

COc1ccc(-c2cc(=O)n3cc(N4C[C@H](O)[C@@H](N5CCCC5)C4)ccc3n2)cc1F [Compound 232, 2-(3-fluoro-4-methoxyphenyl)-7-[(3′S,4′S)-4′-hydroxy-1,3′-bipyrrolidin-1′-yl]-4H-pyrido[1,2-a]pyrimidin-4-one]
maximum fold (Fold) increase of Smn protein [1]: * (A maximum fold increase of ≤1.2 is indicated by one star (*))
EC (1.5-fold increase) [2]: 1 to 3 µM
melting point: 226 to 232 °C

COc1ccc(-c2cc(=O)n3cc(N(C)[C@@H]4CCNC4)ccc3n2)cc1F [Compound 233, 2-(3-fluoro-4-methoxyphenyl)-7-{methyl[(3R)-pyrrolidin-3-yl]amino}-4H-pyrido[1,2-a]pyrimidin-4-one]
maximum fold (Fold) increase of Smn protein [1]: * (A maximum fold increase of ≤1.2 is indicated by one star (*))
EC (1.5-fold increase) [2]: 0.3 to 1 µM
melting point: 143 to 147 °C

Cc1nc2ccc(-c3cc(=O)n4cc(N5CCN(C)[C@@H](C)C5)ccc4n3)cc2o1 [Compound 234, 7-[(3S)-3,4-dimethylpiperazin-1-yl]-2-(2-methyl-1,3-benzoxazol-6-yl)-4H-pyrido[1,2-a]pyrimidin-4-one]
EC1.5x for Smn protein expression [1]: **** (an EC1.5x≤0.3 μM is indicated by four stars (****))
maximum fold (Fold) increase of Smn protein [1]: ***** (a fold increase >1.65 is indicated by five stars (*****))
EC (1.5-fold increase) [2]: < 0.1 µM
melting point: 205 to 209 °C

COc1ccc(-c2cc(=O)n3cc(O[C@H]4CCNC4)ccc3n2)cc1OC [Compound 236, 2-(3,4-dimethoxyphenyl)-7-[(3S)-pyrrolidin-3-yloxy]-4H-pyrido[1,2-a]pyrimidin-4-one]
EC1.5x for Smn protein expression [1]: * (An EC1.5× for Smn protein expression between >3 μM and ≤10 μM is indicated by one star (*))
maximum fold (Fold) increase of Smn protein [1]: *** (a fold increase between >1.35 and ≤1.5 is indicated by three stars (***))
EC (1.5-fold increase) [2]: 1 to 3 µM
melting point: 164 to 166 °C
